These results are taken from patent publication US7833795B2, “Assessment of cardiovascular risk using isoprostane biomarkers and COX-2 selective inhibitors” (The Trustees of the University of Pennsylvania, priority 2004, dated 2010).

Assay [1] concerns Male Fisher 344 rats. The experiment in a line: Plasma free plus esterified 8-iso-PGF2α by GC/MS. It is filed as in vivo, rat. As to the method:
(§1) Animals and treatment protocol: Male Fisher 344 rats (260-280 g) obtained from Charles River Laboratories (Raleigh, N.C.) were used in all experiments. The animals were housed three to a cage. Autoclaved hardwood bedding was used in solid-bottom polycarbonate cages with filter tops. Animal rooms were maintained at 20-25° C. with 35-70% relative humidity with alternating 12-hour light and dark cycles. The rats had free access to deionized, reverse-osmosis-treated water and received autoclaved NIH 31 rodent chow (Zeigler Bros., Gardners, Pa.) ad libitum. For all experiments, rats were fasted overnight and then administered intraperitoneal injections of carbon tetrachloride in canola oil. Control rats received an equal volume of canola oil. Fasting continued throughout the experiment. Rats were anesthetized with Nembutal (0.1 ml/100 g body weight) and 5 ml blood was removed from the dorsal aorta proximal to its bifurcation into the common iliac arteries.
(§2) Indomethacin pretreatment: The indomethacin regimen used has been previously shown to inhibit COX activity in rats by 90% (dose of 5 mg/kg s.c. 24 hours, 12 hours, and 2 hours prior to the injection of CCl4) (Jackson, 1989, J. Pharmacol. Exp. Ther. 250: 9-21). An additional booster dose was injected 8 hours after the last injection of CCl4 for the measurements performed 16 hours after treatment with CCl4.
(§3) Meclofenamic acid pretreatment: Meclofenamic acid was injected at a dose of 5 mg/kg i.p. 12 h and 2 h prior to the injection of CCl4.
(§4) Carbon tetrachloride (CCL4) treatment: Animals from each of the three dose groups (Control-canola oil, 120 mg/kg CCl4 i.p. and 1200 mg/kg CCl4 i.p.) were investigated at three time points (2, 7, and 16 hours after CCl4 injection). Indomethacin-pretreated rats were also investigated at the same three time points, and the meclofenamic acid-pretreated rats were investigated at one time point (7 hours). Each group consisted of five rats for each analysis, except the meclofenamic acid pretreatment group which consisted of six rats. Animal treatment, sample preparation, assessment of liver histology and serum enzyme activities are described elsewhere (Kadiiska et al., 2000, Free Radic. Biol. Med. 28: 838-845; Jackson, 1989, J. Pharmacol. Exp. Ther. 250: 9-21) and were carried out at NIEHS, Research Triangle Park, N.C.
(§5) Plasma sample preparation: Blood (5 ml) was drawn through single draw Vacutainer® needles (21 Gauge) into open Vacutainer® blood collection tubes containing heparin. The tubes were gently inverted 2-3 times for mixing and immediately placed on ice. Blood was centrifuged (2,000 rpm for 10 minutes at 4° C.) no more than 30 minutes after collection, and the plasma was collected, frozen on dry ice and stored at −70° C.
Measurement of the sum of free plus esterified 8-iso-PGF2α in plasma were performed using an improved GC/MS-based analysis for the quantitation of this isoprostane in plasma. A detailed protocol for this extraction and quantitation has been published (Parker et al., 2001, Mol. Biotechnol. 18: 105-118). Measurements of the sum of free plus esterified 8-iso-PGF2α in plasma were performed at NIEHS, Research Triangle Park, N.C.

For assay [2], the system named is Male Fisher 344 rats. Nature of the assay: Plasma free 8-iso-PGF2α by GC/NICI-MS. It counts as in vivo, rat. The note with it: meclofenamic acid 5 mg/kg i.p. pretreatment; only higher CCl4 dose, 7 h. The method, then:
as §1, §2, §3, §4, §5
Two slightly different methods developed in two different laboratories were used to measure the effect of CCl4 on the plasma levels of free 8-iso-PGF2α, and the sum of free plus esterified 8-iso-PGF2α (also known as 8-epi-PGF2α and iPF2α-III and 15-F2t-IsoP). Free 8-iso-PGF2α concentrations in plasma were determined by gas chromatography/negative ion chemical ionization mass spectrometry (GC/NICI-MS) by the method of Morrow et al. (1999, Methods Enzymol. 300: 3-12). Briefly, [2H4] 8-iso-PGF2α internal standard was added to plasma and F2-isoprostanes were extracted with a C18 Sep-Pak® Cartridge (Waters Associates, Milford, Mass.). The extracted F2-isoprostanes were converted to pentafluorobenzyl ester and purified by TLC after which they were converted to a trimethylsilyl ether derivative and subsequently analyzed by GC-MS. The assay was developed and performed at Vanderbilt University, Nashville, Tenn.

Assay [3] relates to Male Fisher 344 rats. Nature of the assay: Urinary free 8-iso-PGF2α by radioimmunoassay. It counts as in vivo, rat. The method, then:
as §1, §3
as §4, with “N.C. […]” for “N.C.”
In Experimental Example 2, urine samples were also analyzed for free 8-iso-PGF2α, without any extraction, by radioimmunoassay (Basu, 1998, Prost. Leuk. Ess. Fatty Acids. 58: 319-325). […]

Assay [4] deals with Male Fisher 344 rats. The experiment in a line: Urinary 8,12-iso-iPF2α-VI by LC/MS/MS. It counts as in vivo, rat. The note with it: for urinary 8,12-iso-iPF2α-VI, pretreated vs non-pretreated: indomethacin pretreatment. As to the method:
as §1, §2, §3, §4
(§6) Urine sample preparation: The day prior to treatment, both experimental and control animals were placed in stainless steel metabolic cages especially designed for urine collection. For Experimental Example 2, animals were placed in metabolic cages immediately after the last injection of indomethacin or meclofenamic acid. Urine was collected (in dark vials) from the animals during the following intervals: 2 to 7 hours and 7 to 16 hours after CCl4 or canola oil (controls) treatment. Urine samples from indomethacin-pretreated rats were collected from 2 to 7 hours and 7 to 16 hours after the injection of CCl4, whereas samples from meclofenamic-acid-pretreated rats were collected only from 2 to 7 hours after the injection. All urine samples were immediately frozen on dry ice and stored at −70° C.
Analysis of 8,12-iso-iPF2α-VI, which is, along with its epimer 5-epi-8,12-iso-iPF2α-VI, the most prevalent PGF-ring isoprostane in human urine, was accomplished by addition of a tetradeuterated analog, solid phase extraction and quantitation using liquid chromatography and tandem mass spectroscopy (LC/MS/MS) (Li et al., 1999, Proc. Natl. Acad. Sci. USA 96: 13381-13386). The measurements were performed at the University of Pennsylvania, Philadelphia, Pa.

For assay [5], the system named is Male Fisher 344 rats. Nature of the assay: Urinary MDA by HPLC with spectrophotometry. It is filed as in vivo, rat. Conditions: for urinary MDA: meclofenamic acid pretreatment. As to the method:
as §1, §2, §3, §4, §6
Urinary MDA was analyzed using high pressure liquid chromatography (HPLC). To 500 μl urine samples, 25 μl BHT and 750 μl 0.5% TBA solution were added, in this order. Samples were incubated at 60° C. for 60 minutes. After cooling, chloroform (750 μl) was added and mixed well. Following centrifugation, the aqueous layer was removed and used for HPLC analysis (column […]; mobile phase, 6:4(v/v) 0.04 M acetate buffer (pH 5.5)/MeOH; detection, 532 nm). The procedure was developed and performed by OXIS Research, Portland, Oreg.

Assay [6] relates to Male Fisher 344 rats. Nature of the assay: Urinary free plus esterified 8-iso-PGF2α by immunoassay. It counts as in vivo, rat. As to the method:
as §1, §2, §3, §4, §6
Urinary 8-iso-PGF2α concentrations were measured by the competitive immunoassay procedure in which 8-iso-PGF2α conjugated to alkaline phosphatase competed with the test analyte for antibody specific for the isoprostane. The anti-8-iso-PGF2α antibody was captured by anti-Fc antibodies immobilized on a microtiter plate. The assay was developed by Assay Designs, Inc., Ann Arbor, Mich. and performed at OXIS Research, Portland, Oreg.
In an additional method not recited in Example 1, an immunoassay was used to measure the sum of free plus esterified 8-iso-PGF2α. The immunoassay used anti-8-iso-PGF2α antibody was developed by Assay Designs, Inc., Ann Arbor, Mich., and performed at Oxis Research, Portland, Oreg.

Assay [7] has as its system Male Fisher 344 rats. The experiment in a line: Plasma MDA by GC/NICI-MS. It is filed as in vivo, rat. The note with it: indomethacin pretreatment; controls at 7 and 16 h, lower CCl4 dose at 2 and 16 h. The method, then:
as §1, §2, §4, §5
Plasma MDA concentrations were also measured by using gas chromatography/negative ion chemical ionization mass spectroscopy (GC/NICI-MS) as described by Yeo et al. (Yeo et al., 1994, Anal. Biochem. 220: 391-396). The stable isotope internal standard [^2H2] MDA and an antioxidant (2,6-tert-butyl-4-methylphenol) were added to the plasma samples. The samples were then incubated at room temperature in 6.6 mol H2SO4 for 10 minutes to hydrolyze the aldehydes from the proteins. Plasma MDA was converted to a stable pentafluorophenyl hydrazine derivative which was quantified by using the GC-MS in the negative chemical ionization mode. The assay was performed at Children's Hospital Oakland Research Institute, Oakland, Calif.

The subject of assay [8] is Male Fisher 344 rats. The experiment in a line: Plasma MDA, TBA colorimetric assay with 3rd derivative spectroscopy. It counts as in vivo, rat. Conditions: indomethacin pretreatment. As to the method: as §1, §4, §5
Two colorimetric-based assays, using third derivative spectroscopy, were also used to measure MDA in plasma. The TBA colorimetric assay is designed to measure free MDA and MDA-protein adducts (Schiff base), and therefore includes mild acid hydrolysis. The Bioxytech® LPO-586™ colorimetric assay is based upon the reaction of the chromogenic reagent N-methyl-2-phenylindole (NMPI) with MDA at 45° C. One molecule of free MDA combines with 2 molecules of the chromogenic agent to produce a stable chromophore with a maximal absorbance at 586 nm. In both assays, the concentration of MDA was determined with 3rd derivative spectroscopy. Both assays were developed by OXIS Research Inc., Portland, Oreg., and were performed at OXIS and at Loyola University Medical Center, Maywood, Ill.

The subject of assay [9] is COX. Conditions: 5 mg/kg s.c. 24, 12 and 2 hours prior to CCl4; cited from earlier work.
Where [10] appears, read: meclofenamic acid pretreatment, 7 h.

The structures appear in SMILES notation.

Take `Cc1ccc(Cl)c(Nc2ccccc2C(=O)O)c1Cl` [meclofenamic acid]: the “plasma free plus esterified 8-iso-PGF2α, effect compared with that on free 8-iso-PGF2α” value in [1] (setting [10]) is “similar”. In [2], the “plasma free 8-iso-PGF2α, pretreated vs non-pretreated” value was “significant decrease”. Besides, the “basal urinary free 8-iso-PGF2α (radioimmunoassay) vs control group” value in [3] (meclofenamic acid-treated rats, no CCl4) was “lower basal levels”. For the same compound, the “urinary free 8-iso-PGF2α (radioimmunoassay)” value in assay [3] (meclofenamic pretreatment, both doses of CCl4, 7 h) is “increased”. Besides, in assay [4] (setting [10]), the “CCl4-induced urinary 8,12-iso-iPF2α-VI” value is listed as “increased”. Further, the “urinary MDA” value in assay [5] (higher dose of CCl4, 7 h) is on record as “significant inhibition”; in assay [5] (low dose of CCl4, 7 h), “increased”. Also, in [6] (meclofenamic acid pretreatment, high CCl4 dose, 7 h), the “urinary free plus esterified 8-iso-PGF2α (immunoassay), pretreated vs non-pretreated” value is given as “significant decrease”.
On to `COc1ccc2c(c1)c(CC(=O)O)c(C)n2C(=O)c1ccc(Cl)cc1` [indomethacin, 1-[p-chlorobenzoyl]-5-methoxy-2-methylindole-3-acetic acid], for which the “plasma free plus esterified 8-iso-PGF2α, pretreated vs non-pretreated” value in assay [1] (indomethacin pretreatment, only higher CCl4 dose at 2 and 7 h) is “statistically significant suppression”. The “plasma MDA (GC/MS), pretreated vs non-pretreated rats” value in [7] was “statistically significant decrease”. For the same compound, the “urinary 8,12-iso-iPF2α-VI, pretreated vs non-pretreated” value in assay [4] (controls, earlier time point) is “increased”; in assay [4] (higher dose CCl4), “markedly inhibited”; in assay [4] (low dose CCl4), “no effect”. For the same compound, the “urinary MDA, pretreated vs non-pretreated” value in [5] (indomethacin pretreatment, controls and low-dose CCl4, both time points) is recorded as “increase in MDA excretion”. Moreover, in assay [8], the “plasma MDA (third derivative spectroscopy), pretreated vs non-pretreated” value is “similarly decreased”. For the same compound, the “urinary free plus esterified 8-iso-PGF2α (immunoassay), pretreated vs non-pretreated” value in [6] (indomethacin pretreatment, controls at 7 h, higher CCl4 dose at both time points) is on record as “Suppression”. Besides, the “inhibition of COX activity in rats” value in [9] is reported as 90%.
